Experimental findings from patent US10961231B2, “NTCP inhibitors” (National Institute of Biological Sciences, Beijing, priority 2018, dated 2021) are described below.

pIC50: −log10 of the molar value.

One assay has as its target T1, NTCP (Homo sapiens, UniProt Q14973).
T1 sequence (Q14973 1-349): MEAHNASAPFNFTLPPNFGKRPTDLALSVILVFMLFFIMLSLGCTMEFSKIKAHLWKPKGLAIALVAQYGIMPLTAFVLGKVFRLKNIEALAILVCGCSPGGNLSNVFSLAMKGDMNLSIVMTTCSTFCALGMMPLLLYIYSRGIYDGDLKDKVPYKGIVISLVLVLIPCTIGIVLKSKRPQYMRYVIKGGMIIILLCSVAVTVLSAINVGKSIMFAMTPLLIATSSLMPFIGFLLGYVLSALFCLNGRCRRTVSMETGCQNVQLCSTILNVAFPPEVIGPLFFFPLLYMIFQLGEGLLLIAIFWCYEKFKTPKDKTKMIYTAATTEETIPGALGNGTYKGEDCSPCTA
As to the kind of experiment: [3H]-TCA uptake assay (NTCP inhibition). The conditions noted are these: IC50, given as a range, marked * (asterisk not explained). The class given is cell-based. The method, boiled down: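 PTH and HepG2-NTCP cells kept 24 h in PMM to induce NTCP, then exposed 2 h to test compounds or DMSO. Uptake of 1 μM [3H]-taurocholate in Na+ Ringer's buffer (145 mM Na) ran 15 min at 37° C. Cells washed, lysed in 1% Triton X-100, and radioactivity counted by liquid scintillation.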
As usually defined, the pIC50 is the negative decadic logarithm of the IC50, by convention in mol/L. With `CCOc1cccc(OC2CC(C)C(C3C(=O)NC(CC)C(=O)N(C)CC(=O)N(C)C(CC(C)C)C(=O)NC(C(C)C)C(=O)N(C)C(CC(C)C)C(=O)NC(C)C(=O)NC(C)C(=O)N(C)C(CC(C)C)C(=O)N(C)C(CC(C)C)C(=O)N(C)C(C(C)C)C(=O)N3C)O2)c1` (stereo not drawn) [Compound 29A-o], the pIC50 was 4.00 to 6.00. Same read-out and setting: under `CCC1NC(=O)C(C2OC(SCc3cccc(Cl)c3OC)CC2C)N(C)C(=O)C(C(C)C)N(C)C(=O)C(CC(C)C)N(C)C(=O)C(CC(C)C)N(C)C(=O)C(C)NC(=O)C(C)NC(=O)C(CC(C)C)N(C)C(=O)C(C(C)C)NC(=O)C(CC(C)C)N(C)C(=O)CN(C)C1=O` (stereo not drawn) [Compound 88A-s] stands 4.00 to 6.00. The same measure, in the same setting: under `CCC1NC(=O)C(C2OC(Oc3cccc(OCc4ccc(F)cc4)c3)CC2C)N(C)C(=O)C(C(C)C)N(C)C(=O)C(CC(C)C)N(C)C(=O)C(CC(C)C)N(C)C(=O)C(C)NC(=O)C(C)NC(=O)C(CC(C)C)N(C)C(=O)C(C(C)C)NC(=O)C(CC(C)C)N(C)C(=O)CN(C)C1=O` (stereo not drawn) [Compound 21A-o] stands 4.00 to 6.00; under `CCC1NC(=O)C(C2OC(Oc3ccc(SCCCS(=O)(=O)O)cc3)CC2C)N(C)C(=O)C(C(C)C)N(C)C(=O)C(CC(C)C)N(C)C(=O)C(CC(C)C)N(C)C(=O)C(C)NC(=O)C(C)NC(=O)C(CC(C)C)N(C)C(=O)C(C(C)C)NC(=O)C(CC(C)C)N(C)C(=O)CN(C)C1=O` (stereo not drawn) [Compound 10A-o], 4.00 to 6.00; under `CCC1NC(=O)C(C2OC(Oc3ccc(C)cc3)CC2C)N(C)C(=O)C(C(C)C)N(C)C(=O)C(CC(C)C)N(C)C(=O)C(CC(C)C)N(C)C(=O)C(C)NC(=O)C(C)NC(=O)C(CC(C)C)N(C)C(=O)C(C(C)C)NC(=O)C(CC(C)C)N(C)C(=O)CN(C)C1=O` (stereo not drawn) [Compound 2A-o], 4.00 to 6.00. The same measure, in the same setting: under `CCC1NC(=O)C(C2OC(Oc3ccc(Cl)c(OCCO)c3)CC2C)N(C)C(=O)C(C(C)C)N(C)C(=O)C(CC(C)C)N(C)C(=O)C(CC(C)C)N(C)C(=O)C(C)NC(=O)C(C)NC(=O)C(CC(C)C)N(C)C(=O)C(C(C)C)NC(=O)C(CC(C)C)N(C)C(=O)CN(C)C1=O` (stereo not drawn) [Compound 46A-o] stands 4.00 to 6.00; under `CCC1NC(=O)C(C2OC(SC(C)c3ccc(Cl)c(Cl)c3)CC2C)N(C)C(=O)C(C(C)C)N(C)C(=O)C(CC(C)C)N(C)C(=O)C(CC(C)C)N(C)C(=O)C(C)NC(=O)C(C)NC(=O)C(CC(C)C)N(C)C(=O)C(C(C)C)NC(=O)C(CC(C)C)N(C)C(=O)CN(C)C1=O` (stereo not drawn) [Compound 96A-s], 4.00 to 6.00; under `CCC1NC(=O)C(C2OC(OCc3cc(Cl)c(Cl)cc3Cl)CC2C)N(C)C(=O)C(C(C)C)N(C)C(=O)C(CC(C)C)N(C)C(=O)C(CC(C)C)N(C)C(=O)C(C)NC(=O)C(C)NC(=O)C(CC(C)C)N(C)C(=O)C(C(C)C)NC(=O)C(CC(C)C)N(C)C(=O)CN(C)C1=O` (stereo not drawn) [Compound 104], 4.00 to 6.00. On to `CCC1NC(=O)C(C2OC(SC(c3ccccc3)c3ccccc3)CC2C)N(C)C(=O)C(C(C)C)N(C)C(=O)C(CC(C)C)N(C)C(=O)C(CC(C)C)N(C)C(=O)C(C)NC(=O)C(C)NC(=O)C(CC(C)C)N(C)C(=O)C(C(C)C)NC(=O)C(CC(C)C)N(C)C(=O)CN(C)C1=O` (stereo not drawn) [Compound 80A-s], for which the pIC50 was 4.00 to 6.00. Consider `CCC1NC(=O)C(C2OC(Oc3cccc(N(C)CC)c3)CC2C)N(C)C(=O)C(C(C)C)N(C)C(=O)C(CC(C)C)N(C)C(=O)C(CC(C)C)N(C)C(=O)C(C)NC(=O)C(C)NC(=O)C(CC(C)C)N(C)C(=O)C(C(C)C)NC(=O)C(CC(C)C)N(C)C(=O)CN(C)C1=O` (stereo not drawn) [Compound 49A-o], for which the pIC50 was 4.00 to 6.00.

Still in this assay, the particulars now being: given as a range, marked * (asterisk not explained).
`CCC1NC(=O)C(C2OC(Oc3cccc(OCc4ccc5ccc(=O)oc5c4)c3)CC2C)N(C)C(=O)C(C(C)C)N(C)C(=O)C(CC(C)C)N(C)C(=O)C(CC(C)C)N(C)C(=O)C(C)NC(=O)C(C)NC(=O)C(CC(C)C)N(C)C(=O)C(C(C)C)NC(=O)C(CC(C)C)N(C)C(=O)CN(C)C1=O` (stereo not drawn) [Compound 58A-o]: the pIC50 is 4.00 to 6.00.

Still in this assay, the particulars now being: given as a range; assay not given.
What is called IC50 is the concentration that gives 50% inhibition. `CCC1NC(=O)C(C2OC(Sc3ccc(C4CCCCC4)cc3)CC2C)N(C)C(=O)C(C(C)C)N(C)C(=O)C(CC(C)C)N(C)C(=O)C(CC(C)C)N(C)C(=O)C(C)NC(=O)C(C)NC(=O)C(CC(C)C)N(C)C(=O)C(C(C)C)NC(=O)C(CC(C)C)N(C)C(=O)CN(C)C1=O` [Compound 9A, [2-((2R,3R)-5-(4-cyclohexylphenylthio)-3-methyltetrahydrofuran-2-yl)-2-(methylamino)acetic acid]^1-cyclosporin A] gave an IC50 of 1000 to 1e+06 nM. On the same count and under the same terms, with `CCC1NC(=O)C(C2OC(OCc3ccc(Cl)c(Cl)c3)CC2C)N(C)C(=O)C(C(C)C)N(C)C(=O)C(CC(C)C)N(C)C(=O)C(CC(C)C)N(C)C(=O)C(C)NC(=O)C(C)NC(=O)C(CC(C)C)N(C)C(=O)C(C(C)C)NC(=O)C(CC(C)C)N(C)C(=O)CN(C)C1=O` [Compound 94B, [2-((2R,3R)-5-(3,4-dichlorobenzyloxy)-3-methyltetrahydrofuran-2-yl)-2-(methylamino)acetic acid]^1-cyclosporin A] the figure was 1 to 1000 nM; with `CCC1NC(=O)C(C2OC(Sc3cccc(OCc4ccccn4)c3)CC2C)N(C)C(=O)C(C(C)C)N(C)C(=O)C(CC(C)C)N(C)C(=O)C(CC(C)C)N(C)C(=O)C(C)NC(=O)C(C)NC(=O)C(CC(C)C)N(C)C(=O)C(C(C)C)NC(=O)C(CC(C)C)N(C)C(=O)CN(C)C1=O` [Compound 52A, [2-((2R,3R)-3-methyl-5-(3-(pyridin-2-ylmethoxy)phenylthio)tetrahydrofuran-2-yl)-2-(methylamino)acetic acid]^1-cyclosporin A], 1 to 1000 nM; with `CCC1NC(=O)C(C2OC(Sc3cccc(N(C)CC)c3)CC2C)N(C)C(=O)C(C(C)C)N(C)C(=O)C(CC(C)C)N(C)C(=O)C(CC(C)C)N(C)C(=O)C(C)NC(=O)C(C)NC(=O)C(CC(C)C)N(C)C(=O)C(C(C)C)NC(=O)C(CC(C)C)N(C)C(=O)CN(C)C1=O` [Compound 49A, [2-((2R,3R)-5-(3-(ethyl(methyl)amino)phenylthio)-3-methyltetrahydrofuran-2-yl)-2-(methylamino)acetic acid]^1-cyclosporin A], 1 to 1000 nM. On to `CCC1NC(=O)C(C2OC(OC(C)c3ccccc3)CC2C)N(C)C(=O)C(C(C)C)N(C)C(=O)C(CC(C)C)N(C)C(=O)C(CC(C)C)N(C)C(=O)C(C)NC(=O)C(C)NC(=O)C(CC(C)C)N(C)C(=O)C(C(C)C)NC(=O)C(CC(C)C)N(C)C(=O)CN(C)C1=O` (single isomer, unassigned) [Compound 78A], for which the IC50 was 1 to 1000 nM.

Compound `CCC1NC(=O)C(C2OC(Sc3cccc(O)c3)CC2C)N(C)C(=O)C(C(C)C)N(C)C(=O)C(CC(C)C)N(C)C(=O)C(CC(C)C)N(C)C(=O)C(C)NC(=O)C(C)NC(=O)C(CC(C)C)N(C)C(=O)C(C(C)C)NC(=O)C(CC(C)C)N(C)C(=O)CN(C)C1=O` [Compound 25A, [2-((2R,3R)-5-(3-hydroxyphenylthio)-3-methyltetrahydrofuran-2-yl)-2-(methylamino)acetic acid]^1-cyclosporine A] gave an IC50 of 1 to 1000 nM. The same measure, in the same setting: under `CCC1NC(=O)C(C2OC(Sc3ccc(N4CCOCC4)cc3)CC2C)N(C)C(=O)C(C(C)C)N(C)C(=O)C(CC(C)C)N(C)C(=O)C(CC(C)C)N(C)C(=O)C(C)NC(=O)C(C)NC(=O)C(CC(C)C)N(C)C(=O)C(C(C)C)NC(=O)C(CC(C)C)N(C)C(=O)CN(C)C1=O` [Compound 3A, [2-((2R,3R)-3-methyl-5-(4-morpholinophenylthio)tetrahydrofuran-2-yl)-2-(methylamino)acetic acid]^1-cyclosporin A] stands 1 to 1000 nM.

The same assay, now with this note: given as a range; assay not given; read-out: IC50.
In the case of `CC[C@@H]1NC(=O)[C@H]([C@@H]2OC(OCc3cccc(Cl)c3)C[C@H]2C)N(C)C(=O)[C@H](C(C)C)N(C)C(=O)[C@H](CC(C)C)N(C)C(=O)[C@H](CC(C)C)N(C)C(=O)[C@@H](C)NC(=O)[C@H](C)NC(=O)[C@H](CC(C)C)N(C)C(=O)[C@H](C(C)C)NC(=O)[C@H](CC(C)C)N(C)C(=O)CN(C)C1=O` (stereo partly drawn) [Compound 85A, [2-((2R,3R)-5-(3-chlorobenzyloxy)-3-methyltetrahydrofuran-2-yl)-2-(methylamino)acetic acid]^1-cyclosporin A], the pIC50 was 6.00 to 9.00.

Take `CC[C@@H]1NC(=O)[C@H]([C@@H]2OC(Sc3cccc(OCc4ccc(-n5cccn5)cc4)c3)C[C@H]2C)N(C)C(=O)[C@H](C(C)C)N(C)C(=O)[C@H](CC(C)C)N(C)C(=O)[C@H](CC(C)C)N(C)C(=O)[C@@H](C)NC(=O)[C@H](C)NC(=O)[C@H](CC(C)C)N(C)C(=O)[C@H](C(C)C)NC(=O)[C@H](CC(C)C)N(C)C(=O)CN(C)C1=O` (stereo partly drawn) [Compound 17A, [2-((2R,3R)-5-(3-(4-(1H-pyrazol-1-yl)benzyloxy)phenylthio)-3-methyltetrahydrofuran-2-yl)-2-(methylamino)acetic acid]^1-cyclosporin A]: the pIC50 was 6.00 to 9.00. On the same count and under the same terms, with `CCC1NC(=O)C(C2OC(Sc3cc(Cl)cc(OCc4ccc(F)cc4)c3)CC2C)N(C)C(=O)C(C(C)C)N(C)C(=O)C(CC(C)C)N(C)C(=O)C(CC(C)C)N(C)C(=O)C(C)NC(=O)C(C)NC(=O)C(CC(C)C)N(C)C(=O)C(C(C)C)NC(=O)C(CC(C)C)N(C)C(=O)CN(C)C1=O` [Compound 61A, [2-((2R,3R)-5-(3-chloro-5-(4-fluorobenzyloxy)phenylthio)-3-methyltetrahydrofuran-2-yl)-2-(methylamino)acetic acid] 1-cyclosporin A] the figure was 6.00 to 9.00.
